The test system of one data set is MDA-MB231 cells. Briefly: Study of the cell cycle (flow cytometry). It counts as cell-based, human. The following applies: MDA-MB231, 24 hours, 5 nM. Here is the method:
(§1) The K562 and MDA-MB231 cells are sown in 6-well culture plates with 300,000 cells per well in their respective media as described above. After 24 hours of culture, the compound (I-1) was added in each of the wells at different concentrations. After 24 hours of incubation, the cells are collected individually in 15 mL tubes and then centrifuged. The cells are then washed twice in cold PBS and then re-suspended in 1 mL of PBS, fixed by adding 2 mL of cold absolute ethanol and placed at 4° C. for 1 hour. After centrifugation, the cells are washed twice in PBS and then the cell pellet is taken up in 100 μL of Triton X100 at 1%. After 30 minutes of incubation at room temperature, 50 μL of RNase A boiled beforehand (1 mg/mL) and 500 μL of propidium iodide (50 μg/mL) are added into each tube and incubated in the dark at room temperature for 30 minutes. The distribution of the number of cells in each of the phases of the cell cycle is then determined by flow cytometry with a cytometer of the FC500 type (Beckman-Coulter, France).
(§2) This effect is significant after 24 hours of exposure of the cells to the compound (I-1) used at a concentration of 5 nM (FIG. 1).
(In general: Flow cytometry measures light scatter and fluorescence of single cells or particles in a stream.)

Another data set relates to K562 cells. Briefly: Study of the cell cycle (flow cytometry). Format: cell-based, human. Particulars: K562, 24 hours, 5 nM. As for the experimental part: as §1, §2
Data set [1] deals with human endothelial cells (EAhy926). Put plainly: Cytotoxicity on human endothelial cells. It counts as cell-based. The following applies: EAhy926, 1 hour, 3 hours or 6 hours of treatment, dose of 10 nM. Here is the method: (§3) Cytotoxicity of compound (I-1) towards human endothelial cells (EAhy926) was evaluated after 1 hour, 3 hours and 6 hours of treatment. The number of living cells was either counted immediately at the end of the treatment (FIG. 3) or 72 hours after stopping the treatment (FIG. 4). It is observed that when the endothelial cells are treated for 72 hours with the compound (I-1), the IC50 is 2 nM.
(§4) The EAhy926 cells (immortalized HUVEC macrovascular endothelial cells) were cultivated in a culture medium “Dulbecco minimal essential medium” (DMEM) containing 4.5 g/L of glucose and supplemented with 10% fetal calf serum, 1% glutamine and a supplement of HAT (100 μM of hypoxanthine, 0.4 μM of aminopterin and 16 μM of thymidine, Invitrogen; Cergy-Pontoise, France). The cells were maintained in the culture at 37° C. in a humid atmosphere containing 5% CO2.
(§5) The cells were sown in 96-well culture plates in an amount of 3,000 cells per well in 50 μL of culture medium. […] At the end of the treatment, the number of cells was evaluated by using the reagent “CellTiter-Blue™” (Promega, Wis., USA) as described earlier. In parallel, after 1 hour, 3 hours or 6 hours of treatment with compound (I-1), the culture medium was removed and replaced with fresh medium for 72 hours and the number of living cells was then measured by using the reagent “CellTiter-Blue™”.

Data set [2] in a line: Cytotoxicity on human endothelial cells. Format: cell-based. The following applies: human; EAhy926, measured after 72 hours; read-out: IC50, cytotoxic activity on EAhy926 (FIG. 4 legend). Here is the method: as §3, §4, §5
The target in data set [3] is T1, purified tubulin from pig brains (Sus scrofa, UniProt P02550+P02554).
T1 construct: from pig brains, where it forms 20-25% of the soluble proteins; from tissue; host or cells: pig brain
T1 sequence (P02554 whole entry): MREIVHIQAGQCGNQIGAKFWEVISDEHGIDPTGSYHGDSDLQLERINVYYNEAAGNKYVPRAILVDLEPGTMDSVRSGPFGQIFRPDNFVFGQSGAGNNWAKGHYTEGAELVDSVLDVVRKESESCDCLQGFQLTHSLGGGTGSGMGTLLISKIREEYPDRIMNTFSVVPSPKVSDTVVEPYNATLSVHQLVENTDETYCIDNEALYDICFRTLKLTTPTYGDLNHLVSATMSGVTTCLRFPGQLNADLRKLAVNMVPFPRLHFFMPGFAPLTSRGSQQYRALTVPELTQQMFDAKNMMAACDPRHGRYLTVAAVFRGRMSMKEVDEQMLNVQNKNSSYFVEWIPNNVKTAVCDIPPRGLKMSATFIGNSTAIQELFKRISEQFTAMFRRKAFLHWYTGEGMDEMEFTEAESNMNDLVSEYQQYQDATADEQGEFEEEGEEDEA
T1 sequence (P02550 whole entry): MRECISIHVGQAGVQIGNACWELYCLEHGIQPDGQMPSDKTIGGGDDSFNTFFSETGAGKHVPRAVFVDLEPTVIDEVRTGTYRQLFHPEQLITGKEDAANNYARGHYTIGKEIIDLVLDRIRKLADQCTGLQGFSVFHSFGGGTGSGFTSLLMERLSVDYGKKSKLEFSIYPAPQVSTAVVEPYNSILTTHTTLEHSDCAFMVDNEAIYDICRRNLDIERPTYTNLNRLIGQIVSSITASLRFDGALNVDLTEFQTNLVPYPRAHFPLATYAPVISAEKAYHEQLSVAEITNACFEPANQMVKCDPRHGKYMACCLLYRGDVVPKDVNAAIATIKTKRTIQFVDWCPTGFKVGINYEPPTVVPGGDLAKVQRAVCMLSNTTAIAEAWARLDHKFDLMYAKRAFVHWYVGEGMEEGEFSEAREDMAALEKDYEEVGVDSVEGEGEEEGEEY
Briefly: Inhibition of polymerization of tubulin (turbidimetry). It counts as biochemical. Particulars: pig brain tubulin, turbidimetry at 350 nm. As for the experimental part:
Tests relating to the inhibition of polymerization of tubulin were carried out on compounds which had the best cytotoxic activities. These tests were carried out on purified tubulin by the Shelanski method (Shelanski, M. C.; Gaskin, F.; Cantor, C. R. Proc. Natl. Acad. Sci. USA, 1973, 70, 765-768) from pig brains, where it forms 20-25% of the soluble proteins. Purification method is based on temperature-dependent assembling-disassembling cycles. Polymerization of tubulin was tracked with turbidimetry according to the Gaskin method (Gaskin, F.; Cantor, C. R.; Shelanski, M. L. J. Bio. Mol. 1974, 89, 737) at a wavelength of 350 nm. The different samples were dissolved in DMSO and incubated for 10 minutes at 37° C. and then for 5 minutes at 0° C.
The CA-4 compound and DMSO were taken as references.
The tests have shown for these compounds an activity inhibiting polymerization of tubulin similar to the one of the reference compound CA-4 (of the order of only one micromolar concentration to a few tens of micromolar concentrations).

Another data set deals with U87. Put plainly: Study of cytotoxicity (CellTiter-Blue, 72 hours). Format: cell-based. The following applies: Homo sapiens, U-87 MG; 72 hours of incubation; read-out: IC50 for different cell lines: U87. As for the experimental part: (§6) The biological activity of the compounds of the invention was studied in vitro on 7 human cancer cell lines with different tissue origins (HCT116: colorectal carcinoma; K562: chronic myeloid leukemia; B16-F10: melanoma; U87: glioblastoma; A549: lung cancer and MDA-MB 231 and MDA-MB 435: breast cancer). The cells selected for the study were incubated at 37° C. in the presence of one of the compounds added into the culture medium at different concentrations. The whole of the conducted experiments allowed determination of the toxicity level of the tested compound, its effect on the course of the cell cycle as well as its capacity of inducing cell death by apoptosis.
(§7) The cancer cell lines originate from the American Type Culture Collection (Rockville, Md., USA) and were grown according to the recommendations of the supplier.
(§8) The cells A549, U87, MDA-MB231, MDA-MB435 and B16F10 were grown in a culture medium “Dulbecco minimal essential medium” (DMEM) containing 4.5 g/L of glucose and supplemented with 10% fetal calf serum and 1% glutamine. The K562 and HCT116 were grown in an RPMI 1640 medium containing 10% fetal calf serum and 1% glutamine. All the cell lines were maintained in the culture at 37° C. in a humid atmosphere containing 5% of CO2. Cell viability was evaluated by using the reagent “CellTiter-Blue™” (Promega, Wis., USA) while observing the instructions of the manufacturer. The cells were sown in 96-well culture plates with 5000 cells per well in 50 μL of culture medium. After 24 hours of culture, the compounds of general formula (I) dissolved in DMSO were individually added into each of the wells in an amount of 50 μl per well. All the compounds were tested in triplicate for each defined concentration and each experiment was repeated three times. After 72 hours of incubation, 20 μL of resazurin were added in each well. After 2 hours of incubation, the emitted fluorescence was measured at 590 nm after excitation at 560 nm by means of a fluorescence reader of the Victor type (Perkin-Elmer, USA).
(§9) The concentration of each of the compounds which induces the death of 50% of the cells (IC50) was determined after 72 hours of incubation. Certain compounds according to the invention have an IC50 of the order of one nanomolar concentration, therefore equivalent to CA-4 taken as a reference.
In general terms: The colour change of resazurin is a common sign of viable cells or microbes.

Another data set relates to K562. Put plainly: Study of cytotoxicity (CellTiter-Blue, 72 hours). Format: cell-based. The following applies: Homo sapiens, 72 hours of incubation, read-out: IC50 for different cell lines: K562. As for the experimental part:
as §6, §7, §8, §9

By IC50 is commonly meant the point on the concentration scale where inhibition reaches its midpoint.

As to `C=C(c1ccc(OC)c(O)c1)c1cc(OC)c(OC)c(OC)c1` [(I-1)], the “Effect on cell cycle” value in the data set on MDA-MB231 cells and in the data set with K562 cells was “blocks cell division in the G2/M phase” in each case. In addition, the “Cytotoxic activity on endothelial cells, short treatment” value in data set [1] is “does not exhibit any cytotoxic activity”. Moreover, in data set [2], the IC50 at 72 h was determined as 2 nM. Moreover, the IC50 in data set [3] is 2200 nM; in the data set on U87, 8 nM; in the data set on K562, 5 nM.

For the origin of these results see patent US8273768B2, “Iso CA-4 and analogues thereof as potent cytotoxic agents inhibiting tubuline polymerization” (Centre National de la Recherche Scientifique (CNRS), priority 2007, dated 2012).
